Data as given in patent US8541449B2, “Substituted isoquinolines and isoquinolinones as Rho kinase inhibitors” (Sanofi, priority 2008, dated 2013).

What was measured:
Type in all cases: biochemical
[1] = molecular target: T1, human recombinant ROCK II (Homo sapiens, UniProt O75116); assay: Determination of Rho kinase inhibition (Caliper peptide phosphorylation assay); conditions: 60 min at 32° C., negative decadal logarithm of the IC50
T1 construct: N-terminal His6-tagged recombinant human ROCK-II residues 11-552; His6 (N); purchased Millipore GmbH, Schwalbach, Germany
T1 sequence (O75116 11-552): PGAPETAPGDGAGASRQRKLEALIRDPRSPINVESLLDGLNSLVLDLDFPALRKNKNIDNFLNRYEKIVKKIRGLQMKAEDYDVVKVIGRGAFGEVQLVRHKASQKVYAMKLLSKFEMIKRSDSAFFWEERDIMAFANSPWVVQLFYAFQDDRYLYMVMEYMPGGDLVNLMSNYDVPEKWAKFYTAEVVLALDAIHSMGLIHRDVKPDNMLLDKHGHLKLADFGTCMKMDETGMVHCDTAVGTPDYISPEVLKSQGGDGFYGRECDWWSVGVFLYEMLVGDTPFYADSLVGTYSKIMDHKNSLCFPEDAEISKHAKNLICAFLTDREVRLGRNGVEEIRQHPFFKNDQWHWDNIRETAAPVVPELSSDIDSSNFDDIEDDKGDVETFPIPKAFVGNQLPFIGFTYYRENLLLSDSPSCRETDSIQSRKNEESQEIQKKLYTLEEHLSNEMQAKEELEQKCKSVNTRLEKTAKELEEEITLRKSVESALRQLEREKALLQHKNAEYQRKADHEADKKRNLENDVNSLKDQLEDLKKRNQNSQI
Procedure: Determination of Rho Kinase Inhibition
To measure Rho-kinase inhibition, IC50 values were determined according to the following protocol:
Active human recombinant ROCK II (N-terminal His6-tagged recombinant human ROCK-II residues 11-552) was purchased from Millipore GmbH, Schwalbach, Germany. The peptide substrate, Fluorescein-[…]-COOH, was obtained from JPT Peptide Technologies, Berlin, Germany. Adenosine-5′-triphosphate (ATP), bovine serum albumine (BSA), dimethylsulphoxide (DMSO), 4-(2-Hydroxyethyl)piperazine-1-ethanesulfonic acid (Hepes), Brij-35, dithiothreitol (DTT) and Pluronic F-68 were purchased from Sigma-Aldrich, Munich, Germany. Tris(hydroxymethyl)-aminomethane (Tris), magnesium chloride, NaOH, 1M HCl and EDTA were obtained from Merck Biosciences, Darmstadt, Germany. “Complete” protease inhibitor was from Roche Diagnostics, Mannheim, Germany.
(§1) Test compounds were diluted to the appropriate concentrations in buffer 1 (25 mM Tris-HCl, pH 7.4, 5 mM MgCl2, 2 mM DTT, 0.02% (w/v) BSA, 0.01% Pluronic F-68 and 3% DMSO). The ROCK II enzyme was diluted to a concentration of 100 ng/mL in buffer 2 (25 mM Tris-HCl, pH 7.4, 5 mM MgCl2, 2 mM DTT and 0.02% (w/v) BSA). The peptide substrate and ATP were diluted to concentrations of 3 μM and 120 μM, respectively, in the buffer 2. Two μl of the compound solution were mixed with 2 μl of the diluted enzyme in a 384-well small volume microtiter plate (Greiner, Bio-One, Frickenhausen, Germany), and the kinase reaction was initiated by addition of 2 μl of the solution containing peptide substrate and ATP. After 60 min incubation at 32° C., the reaction was stopped by addition of 20 μl of a solution containing 100 mM Hepes-NaOH, pH 7.4, 0.015% (v/v) Brij-35, 45 mM EDTA and 0.227% chip coating reagent 1 (Caliper Lifescience Inc, Hopkinton, Mass.). Phosphorylation of the substrate peptide was then detected on a Caliper 3000 instrument essentially as described by Pommereau et al (J. Biomol. Screening 9(5), 409-416, 2004). Separation conditions were as follows: Pressure −1.3 psi, upstream voltage −1562 V, downstream voltage −500 V, sample sip time 200 ms. Positive controls (buffer 1 instead of compound) and negative controls (buffer 1 instead of compound and buffer 2 instead of ROCK II) were run in parallel on each plate.
The following products/compounds were tested in said assay by using the respective form (salt or free base) obtained as in the examples described above and the following activities were measured

[2] = molecular target: T2, recombinant human PKG1-beta (Homo sapiens, UniProt Q13976); assay: Determination of Protein Kinase G inhibition (Caliper peptide phosphorylation assay); conditions: recombinant human PKG1-beta versus ROCK II
T2 construct: Active recombinant human PKG1-beta (full-length, with N-terminal His-tag); His-tag (N); purchased Millipore GmbH, Schwalbach, Germany
T2 sequence (Q13976 1-686 isoform Q13976-2): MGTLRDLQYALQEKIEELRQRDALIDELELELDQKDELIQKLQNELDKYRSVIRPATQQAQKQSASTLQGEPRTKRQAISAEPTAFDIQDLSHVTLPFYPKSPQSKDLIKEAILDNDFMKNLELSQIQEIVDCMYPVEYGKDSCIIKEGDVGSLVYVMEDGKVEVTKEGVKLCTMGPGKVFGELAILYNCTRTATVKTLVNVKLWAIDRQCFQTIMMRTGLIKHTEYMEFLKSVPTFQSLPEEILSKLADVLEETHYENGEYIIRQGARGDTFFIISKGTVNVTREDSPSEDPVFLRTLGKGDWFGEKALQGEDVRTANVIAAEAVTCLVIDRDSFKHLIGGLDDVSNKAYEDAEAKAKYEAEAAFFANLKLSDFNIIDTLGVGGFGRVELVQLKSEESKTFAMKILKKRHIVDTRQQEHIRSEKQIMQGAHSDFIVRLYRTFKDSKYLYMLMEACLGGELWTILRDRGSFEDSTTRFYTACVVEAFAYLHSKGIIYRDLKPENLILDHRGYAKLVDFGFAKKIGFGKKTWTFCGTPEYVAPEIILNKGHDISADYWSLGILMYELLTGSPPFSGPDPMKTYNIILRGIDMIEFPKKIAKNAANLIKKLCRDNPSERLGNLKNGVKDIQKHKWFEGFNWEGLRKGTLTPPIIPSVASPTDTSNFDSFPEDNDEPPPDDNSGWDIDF
Procedure: (§2) Determination of Protein Kinase A and Protein Kinase G Inhibition
(§3) To measure PKA and PKG1-beta inhibition, IC50 values were determined according to the following protocol:
(§4) Active recombinant human PKG1-beta (full-length, with N-terminal His-tag) was purchased from Millipore GmbH, Schwalbach, Germany. Active recombinant human PKA (residues 1-351, N-terminal His-tag) was obtained from Invitrogen, Karlsruhe, Germany. The peptide substrate, Fluorescein-[…]-COOH, was obtained from JPT Peptide Technologies, Berlin, Germany. Adenosine-5′-triphosphate (ATP), bovine serum albumine (BSA), dimethylsulphoxide (DMSO), 4-(2-Hydroxyethyl)piperazine-1-ethanesulfonic acid (Hepes), Brij-35, dithiothreitol (DTT) and Pluronic F-68 were purchased from Sigma-Aldrich, Munich, Germany. Tris(hydroxymethyl)-aminomethane (Tris), magnesium chloride, NaOH, 1M HCl and EDTA were obtained from Merck Biosciences, Darmstadt, Germany. “Complete” protease inhibitor was from Roche Diagnostics, Mannheim, Germany.
as §1, with “PKG1-beta and PKA were” for “The ROCK II enzyme was”, “concentrations” for “a concentration”, “150 ng/ml and 30 ng/ml, respectively,” for “100 ng/mL”, “2.” for “2 (25 mM Tris-HCl, pH 7.4, 5 mM MgCl2, 2 mM DTT and 0.02% (w/v) BSA).”, “kinase solution)” for “ROCK II)”, “plate. The following products/compounds were tested in said assay by using the respective form (salt or free base) obtained as in the examples described above and the following activities were measured.” for “plate.”

recombinant human PKA = molecular target: T3, recombinant human PKA (Homo sapiens, UniProt P17612); assay: Determination of Protein Kinase A inhibition (Caliper peptide phosphorylation assay); conditions: recombinant human PKA versus ROCK II
T3 construct: Active recombinant human PKA (residues 1-351, N-terminal His-tag); His-tag (N); purchased Invitrogen, Karlsruhe, Germany
Procedure: as §2, §3, §4
as §1, with “PKG1-beta and PKA were” for “The ROCK II enzyme was”, “concentrations” for “a concentration”, “150 ng/ml and 30 ng/ml, respectively,” for “100 ng/mL”, “2.” for “2 (25 mM Tris-HCl, pH 7.4, 5 mM MgCl2, 2 mM DTT and 0.02% (w/v) BSA).”, “kinase solution)” for “ROCK II)”, “plate. The following products/compounds were tested in said assay by using the respective form (salt or free base) obtained as in the examples described above and the following activities were measured.” for “plate.”

CCC(N)[C@]1(c2cccc(C(F)(F)F)c2)CC[C@H](Oc2cc3cc[nH]c(=O)c3cc2C)CC1 (stereo partly drawn) [Example 86, cis-6-[4-(1-Amino-propyl)-4-(3-trifluoromethyl-phenyl)-cyclohexyloxy]-7-methyl-2H-iso quinolin-1-one]
pIC50 [1]: +++++ (6.0≦pIC50<7.0) | Selectivity against PKG [2]: >10 | Selectivity against PKA (recombinant human PKA): >10

CCC(N)[C@]1(c2cccc(Br)c2)CC[C@@H](Oc2cc3cc[nH]c(=O)c3cc2Cl)CC1 (stereo partly drawn) [Example 16, trans-6-[4-(1-Amino-propyl)-4-(3-bromo-phenyl)-cyclohexyloxy]-7-chloro-2H-iso quinolin-1-one]
pIC50 [1]: ++++++ (7.0≦pIC50<8.0) | Selectivity against PKG [2]: >100 | Selectivity against PKA (recombinant human PKA): >300

CCC(N)[C@]1(c2ccccc2)CC[C@H](Oc2cc3cc[nH]c(=O)c3cc2C)CC1 (stereo partly drawn) [Example 11, cis-6-[4-(1-Amino-propyl)-4-phenyl-cyclohexyloxy]-7-methyl-2H-iso quinolin-1-one]
pIC50 [1]: ++++++ (7.0≦pIC50<8.0) | Selectivity against PKG [2]: >10 | Selectivity against PKA (recombinant human PKA): >300

CCC(N)[C@]1(c2ccccc2)CC[C@H](Oc2cc3cc[nH]c(=O)c3cc2F)CC1 (stereo partly drawn) [Example 87, cis-6-[4-(1-Amino-propyl)-4-phenyl-cyclohexyloxy]-7-fluoro-2H-iso quinolin-1-one]
pIC50 [1]: ++++++ (7.0≦pIC50<8.0) | Selectivity against PKG [2]: >100 | Selectivity against PKA (recombinant human PKA): >1000

CCC(N)[C@@]1(c2ccccc2)C[C@@H]2C[C@H]1CC2Oc1cc2cc[nH]c(=O)c2cc1Cl (stereo partly drawn) [Example 100, 6-[(1S,4S,5S)-5-(1-Amino-propyl)-5-phenyl-bicyclo[2.2.1]hept-2-yloxy]-7-chloro-2H-isoquinolin-1-one]
pIC50 [1]: +++++++ (8.0≦pIC50) | Selectivity against PKG [2]: >1000 | Selectivity against PKA (recombinant human PKA): >1000

Cc1ccc(C(N)C2CCC(Oc3cc4cc[nH]c(=O)c4cc3Cl)CC2)cc1 (single isomer, unassigned) [Example 39, 6-[4-(Amino-p-tolyl-methyl)-cyclohexyloxy]-7-chloro-2H-isoquinolin-1-one]
IC50 [1]: 10 to 100 nM | Selectivity against PKG [2]: >100 | Selectivity against PKA (recombinant human PKA): >100

CC(N)(c1ccc(F)cc1)C1CCC(Oc2cc3cc[nH]c(=O)c3cc2Cl)CC1 (single isomer, unassigned) [Example 116, 6-{4-[1-Amino-1-(4-fluoro-phenyl)-ethyl]-cyclohexyloxy}-7-chloro-2H-isoquinolin-1-one]
IC50 [1]: 10 to 100 nM | Selectivity against PKG [2]: >10 | Selectivity against PKA (recombinant human PKA): >100

CCC(N)[C@]1(c2ccc(F)c(F)c2)CC[C@H](Oc2cc3cc[nH]c(=O)c3cc2Cl)CC1 (stereo partly drawn) [Example 59, cis-6-[4-(1-Amino-propyl)-4-(3,4-difluoro-phenyl)-cyclohexyloxy]-7-chloro-2H-isoquinolin-1-one]
pIC50 [1]: +++++++ (8.0≦pIC50) | Selectivity against PKG [2]: >300 | Selectivity against PKA (recombinant human PKA): >1000

CCC(N)[C@]1(c2ccc(F)cc2F)CC[C@H](Oc2cc3cc[nH]c(=O)c3cc2Cl)CC1 (stereo partly drawn) [Example 56, cis-6-[4-(1-Amino-propyl)-4-(2,4-difluoro-phenyl)-cyclohexyloxy]-7-chloro-2H-isoquinolin-1-one]
pIC50 [1]: +++++++ (8.0≦pIC50) | Selectivity against PKG [2]: >300 | Selectivity against PKA (recombinant human PKA): >1000

CCC(N)[C@]1(c2ccccn2)CC[C@H](Oc2cc3cc[nH]c(=O)c3cc2Cl)CC1 (stereo partly drawn) [Example 55, cis-6-[4-(1-Amino-propyl)-4-pyridin-2-yl-cyclohexyloxy]-7-chloro-2H-isoquinolin-1-one]
pIC50 [1]: +++++++ (8.0≦pIC50) | Selectivity against PKG [2]: >300 | Selectivity against PKA (recombinant human PKA): >1000

CCC(N)[C@]1(c2ccccc2C)CC[C@H](Oc2cc3cc[nH]c(=O)c3cc2Cl)CC1 (stereo partly drawn) [Example 60, cis-6-[4-(1-Amino-propyl)-4-o-tolyl-cyclohexyloxy]-7-chloro-2H-isoquinolin-1-one]
pIC50 [1]: +++++++ (8.0≦pIC50) | Selectivity against PKG [2]: >100 | Selectivity against PKA (recombinant human PKA): >1000

CCC(N)C[C@]1(c2ccc(F)cc2)CC[C@H](Oc2cc3cc[nH]c(=O)c3cc2Cl)CC1 (stereo partly drawn) [Example 110, cis-6-[4-(2-Amino-butyl)-4-(4-fluoro-phenyl)-cyclohexyloxy]-7-chloro-2H-isoquinolin-1-one]
pIC50 [1]: ++++++ (7.0≦pIC50<8.0) | Selectivity against PKG [2]: >100 | Selectivity against PKA (recombinant human PKA): >300

CCC(N)[C@]1(c2ccc(OC(F)(F)F)cc2)CC[C@H](Oc2cc3cc[nH]c(=O)c3cc2Cl)CC1 (stereo partly drawn) [Example 70, cis-6-[4-(1-Amino-propyl)-4-(4-trifluoro-methoxy-phenyl)-cyclohexyloxy]-7-chloro-2H-isoquinolin-1-one]
pIC50 [1]: +++++++ (8.0≦pIC50) | Selectivity against PKG [2]: >1000 | Selectivity against PKA (recombinant human PKA): >1000

Cc1ccc(C(N)C2CCC(Oc3cc4cc[nH]c(=O)c4cc3Cl)CC2)cc1 (single isomer, unassigned) [Example 38, 6-[4-(Amino-p-tolyl-methyl)-cyclohexyloxy]-7-chloro-2H-isoquinolin-1-one]
IC50 [1]: ≤ 10 nM | Selectivity against PKG [2]: >300 | Selectivity against PKA (recombinant human PKA): >1000
